Read-outs that look alike come from different tables or passages of the source.
Tests used:
HCoV 229E = HCoV 229E cytopathic effect (CPE) assay; assay type: cell-based, Human Coronavirus (HCov) 229E; conditions: read-out: 229E CPE EC50 (μM)
Description: The antiviral activity of compounds was calculated based on the protection of the virus-induced CPE at each concentration normalized by the virus control.
Reagents and instruments used in this assay include luminescent cell viability assay kit CellTiter Glo (Promega) and Microplate Reader Synergy2 (BioTek).
Cytopathic effect (CPE) was measured by CellTiter Glo following the manufacturer's manual. The antiviral activity of compounds was calculated based on the protection of the virus-induced CPE at each concentration normalized by the virus control.

229E mPRO = 229E mPRO (Human coronavirus 229E (HCoV-229E), UniProt P0C6X1); assay: 229E mPRO enzymatic assay; assay type: biochemical, Human Coronavirus (HCov) 229E
Sequence of 229E mPRO (P0C6X1 2966-3267 limits assumed): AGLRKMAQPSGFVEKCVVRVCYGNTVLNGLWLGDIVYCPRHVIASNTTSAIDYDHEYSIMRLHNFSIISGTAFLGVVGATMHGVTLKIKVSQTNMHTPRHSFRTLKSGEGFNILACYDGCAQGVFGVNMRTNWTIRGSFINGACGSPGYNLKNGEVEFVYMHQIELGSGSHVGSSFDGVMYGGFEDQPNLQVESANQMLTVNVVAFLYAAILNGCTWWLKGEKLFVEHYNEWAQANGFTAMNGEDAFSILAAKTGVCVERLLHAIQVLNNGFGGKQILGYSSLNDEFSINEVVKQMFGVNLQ
Description: Compounds were assayed using standard methods to assess compound activity and IC50. […] The assay buffer contained 20 mM of Tris-HCl (pH 7.3), 100 mM of NaCl, 1 mM of EDTA, 5 mM of TCEP and 0.1% BSA.
The compounds were added to an assay plate.
IC50 values of compounds were calculated with the GraphPad Prism software using the nonlinear regression model of log(inhibitor) vs. response—Variable slope (four parameters). The inhibition activity was calculated using the formula below, IC50 values was calculated using the Inhibition % data. Inhibition %=[(Sample−Average ZPE)/(Average HPE−Average ZPE)]*100%
^#HEP: Hundred percent effect controls. Containing substrate+enzyme+1 μM GC376.
Containing enzyme+substrate, no compound.
Sample: Compound activity testing wells. Containing compound+enzyme+substrate.
BG: Compound background control wells. Containing compound+substrate, no enzyme.

| Structure (SMILES) | EC50 (HCoV 229E) [µM] | IC50 (229E mPRO) [µM] | IC50 (229E mPRO; read-out: 229E mPRO IC50) [µM] |
| --- | --- | --- | --- |
| N#C[C@H](C[C@@H]1CCCNC1=O)NC(=O)C1CC2(CCC2)CN1C(=O)c1cc2cccc(Cl)c2[nH]1 (single isomer, unassigned) [731 (Isomer 1)] | < 2 | < 2 | – |
| N#C[C@H](C[C@@H]1CCCNC1=O)NC(=O)C1CC2(CCC2)CN1C(=O)c1cc2cccc(Cl)c2[nH]1 (single isomer, unassigned) [729 (Isomer 1)] | – | – | < 2 |
| N#C[C@H](C[C@@H]1CCCNC1=O)NC(=O)C1CC2(CN1C(=O)c1cc3cccc(Cl)c3[nH]1)CC(F)(F)C2 (single isomer, unassigned) [743 (Isomer 2)] | < 2 | < 2 | – |
| COc1cccc2[nH]c(C(=O)N3C[C@@H]4CC[C@@H]4[C@H]3C(=O)N[C@H](C#N)C[C@@H]3CCNC3=O)cc12 (single isomer, unassigned) [547 (Isomer 2)] | – | – | < 2 |
